Marks after values point to notes of the source that are not given here.
Assay: Single subcutaneous dose [14C]-copper histidinate pharmacokinetic study in healthy adult male subjects
Assay type: in vivo, human
Settings: for Whole Blood:Serum Total Radioactivity Partitioning Ratio (Arithmetic Mean ± SD): n = 6; for Whole Blood:Serum Total Radioactivity Partitioning Ratio: 504 hour postdose, n = 1 (Subject 6)
From the text: The primary objective of this study was to quantitate total radioactivity (TRA) in whole blood, serum, and the eluted fractions of serum spiked with unlabeled copper histidinate (CuHis) from a size exclusion-high performance liquid chromatography (SEC-HPLC) column after a single subcutaneous (SC) administration of [^14C] CuHis in healthy adult male subjects. Further, the study was designed to determine the percentage of ^14C radioactivity associated with cellular components in whole blood over time (e.g., whole blood:serum partitioning concentration ratio).
To evaluate the safety and tolerability after a single SC administration of [^14C] CuHis in healthy adult male subjects. This was an open-label, single-dose, 1-period, PK study conducted at 1 study center in the USA. Six (6) healthy, adult male subjects were enrolled. Screening of subjects occurred within 28 days prior to dosing.
On Day 1, a single SC 3.0 mg (˜500 nCi) dose of [^14C]-CuHis was administered. Pharmacokinetic (PK) samples for determining TRA in whole blood and serum, and [^14C] CuHis in eluted fractions of serum spiked with unlabeled CuHis from an SEC-HPLC column were collected pre-dose and up to 168 hours post-dose (Subjects 1 to 5) or 504 hours post-dose (Subject 6).
A single dose of 3.0 mg (˜500 nCi) [^14C]-CuHis (equivalent to approximately 500 μg of elemental copper) for SC bolus injection was administered into the upper arm of each subject at Hour 0 on Day 1. Hour 0 corresponded to the start of the bolus SC administration on Day 1. Subjects were instructed not to rub the injection site(s).
Blood samples for determining TRA in whole blood and serum, and [^14C]-CuHis in eluted fractions of serum spiked with unlabeled CuHis from a SEC-HPLC column were collected predose and up to 168 hours postdose (Subjects 1 to 5) or up to 504 hours postdose (Subject 6).
TRA CuHis concentration equivalents in whole blood and serum were determined using accelerator mass spectrometry (AMS) at Pharmaron ABS, Inc. (Germantown, Maryland, USA). The lower limits of quantitation (LLOQ) for TRA CuHis concentration equivalents in whole blood and serum ranged from 0.711 to 0.770 ng eq CuHis/mL and 0.239 to 0.284 ng eq CuHis/mL in the different subjects, respectively.
[^14C]-CuHis concentrations in serum fractions from the SEC-HPLC column were determined using AMS at Pharmaron ABS, Inc. (Germantown, Maryland, USA). The LLOQ for [^14C]-CuHis concentrations in serum was 0.270 ng/mL.
Whole blood: serum TRA partitioning ratios were calculated at each postdose time point for each subject as the ratio between whole blood TRA CuHis concentration equivalents and serum TRA CuHis concentration equivalents. The following parameters were calculated for whole blood and serum TRA, and serum [^14C]-CuHis, when possible: AUC0-24, AUC0-last, AUC0-∞, AUC% extrap, Cmax, tmax, tlag, Kel, and t1/2. The AUC0-24 Ratio was calculated for serum [^14C]-CuHis versus serum TRA. CL/F and Vz/F were calculated for serum [^14C]-CuHis.
Whole blood and serum TRA CuHis concentration equivalents, serum [^14C]-CuHis concentrations, and whole blood:serum TRA partitioning ratios were listed and summarized by time point for all subjects in the PK population. Summary statistics, including sample size (n), arithmetic mean (Mean), standard deviation (SD), coefficient of variation (CV %), standard error of the mean (SEM), minimum, median, and maximum were calculated for the above data at each nominal time point.
Whole blood and serum TRA PK parameters, and serum [^14C]-CuHis PK parameters were listed for each subject and summarized for all subjects in the PK population. Summary statistics (n, Mean, SD, CV %, SEM, minimum, median, maximum, geometric mean [Geom Mean], and geometric CV % [Geom CV %]) were calculated for all PK parameters.

[1] = single SC 3.0 mg, arithmetic mean ± SD
[2] = single SC 3.0 mg, geometric mean (geometric CV%)
[3] = single SC 3.0 mg, median (minimum, maximum)
[4] = single SC 3.0 mg, median (minimum, maximum), listed as [^14C]-CuHis
[5] = single SC 3.0 mg, up to 168 h, Subject 6 excluded, geometric mean (geometric CV%)

- Whole Blood:Serum Total Radioactivity Partitioning Ratio (Arithmetic Mean ± SD) (0.25 hour postdose): 0.6165 ± 0.1072
- Whole Blood:Serum Total Radioactivity Partitioning Ratio (Arithmetic Mean ± SD) (0.5 hour postdose): 0.6410 ± 0.05811
- Whole Blood:Serum Total Radioactivity Partitioning Ratio (Arithmetic Mean ± SD) (0.75 hour postdose): 0.6426 ± 0.05966
- arithmetic mean serum CuHis concentration, peak (0.75 hours postdose): 63.47 ng/mL
- Whole Blood:Serum Total Radioactivity Partitioning Ratio (Arithmetic Mean ± SD) (1 hour postdose): 0.6888 ± 0.06107
- Whole Blood:Serum Total Radioactivity Partitioning Ratio (Arithmetic Mean ± SD) (1.5 hour postdose): 0.6728 ± 0.0542
- Whole Blood:Serum Total Radioactivity Partitioning Ratio (Arithmetic Mean ± SD) (2 hour postdose): 0.6761 ± 0.03446
- Whole Blood:Serum Total Radioactivity Partitioning Ratio (Arithmetic Mean ± SD) (4 hour postdose): 0.7010 ± 0.09398
- Whole Blood:Serum Total Radioactivity Partitioning Ratio (Arithmetic Mean ± SD) (8 hour postdose): 0.5856 ± 0.1175
- arithmetic mean serum TRA CuHis concentration equivalent, peak (8 hours postdose): 97.43 ng eq CuHis/mL
- Whole Blood:Serum Total Radioactivity Partitioning Ratio (Arithmetic Mean ± SD) (16 hour postdose): 0.7144 ± 0.1134
- Whole Blood:Serum Total Radioactivity Partitioning Ratio (Arithmetic Mean ± SD) (24 hour postdose): 0.6708 ± 0.08484
- Whole Blood:Serum Total Radioactivity Partitioning Ratio (Arithmetic Mean ± SD) (36 hour postdose): 0.7498 ± 0.04878
- Whole Blood:Serum Total Radioactivity Partitioning Ratio (Arithmetic Mean ± SD) (36 hour postdose, listed as [^14C]-CuHis): 0.7498
- Whole Blood:Serum Total Radioactivity Partitioning Ratio (Arithmetic Mean ± SD) (48 hour postdose): 0.8329 ± 0.09811
- Whole Blood:Serum Total Radioactivity Partitioning Ratio (Arithmetic Mean ± SD) (72 hour postdose): 1.209 ± 0.1925
- Whole Blood:Serum Total Radioactivity Partitioning Ratio (Arithmetic Mean ± SD) (96 hour postdose): 1.612 ± 0.3461
- Whole Blood:Serum Total Radioactivity Partitioning Ratio (Arithmetic Mean ± SD) (120 hour postdose): 1.853 ± 0.3512
- Whole Blood:Serum Total Radioactivity Partitioning Ratio (Arithmetic Mean ± SD) (144 hour postdose): 2.163 ± 0.3333
- Whole Blood:Serum Total Radioactivity Partitioning Ratio (Arithmetic Mean ± SD) (168 hour postdose): 2.392 ± 0.222
- Whole Blood:Serum Total Radioactivity Partitioning Ratio (Arithmetic Mean ± SD) (168 hour postdose, listed as [^14C]-CuHis): 2.392
- arithmetic mean whole blood TRA CuHis concentration equivalents, highest level (168 hours postdose): 100.9 ng eq CuHis/mL
- Whole Blood:Serum Total Radioactivity Partitioning Ratio: 2.160*
- Whole Blood:Serum Total Radioactivity Partitioning Ratio (listed as [^14C]-CuHis): 2.16
- serum TRA CuHis concentration equivalent (504 hours postdose, Subject 6): 30.7 ng eq CuHis/mL
- whole blood TRA CuHis concentration equivalent (504 hours postdose, Subject 6): 66.3 ng eq CuHis/mL
- exposure to TRA (AUC0-last) higher in whole blood than in serum (by 168 hours postdose): approximately 29%
- exposure to TRA (AUC0-24) lower in whole blood than in serum (first 24 hours postdose): approximately 34%
- exposure to TRA in the serum associated with [14C]-CuHis (first 24 hours postdose): Approximately 9%
- distribution phase half-life, serum [14C]-CuHis (initial rapid decrease after peak, estimated): 2 to 3 h
- peak exposure to TRA (Cmax), whole blood compared with serum (single SC 3.0 mg): similar
- AUC% extrap, serum [14C]-copper histidinate [1]: 12.37 ± 8.3964 [n = 5]^e %
- AUC% extrap, serum total radioactivity [1]: 58.34 ± 12.677 [n = 5]^c %
- CL/F, serum [14C]-copper histidinate [1]: 10.34 ± 1.6214 [n = 5]^e L/hr
- Kel, serum [14C]-copper histidinate [1]: 0.0166 ± 0.01512 [n =5]^e 1/hr
- Kel, serum total radioactivity [1]: 0.003278 ± 0.001588 [n = 5]^c 1/hr
- t1/2, serum [14C]-copper histidinate (terminal elimination phase) [1]: 74.842 ± 49.1558 [n = 5]^e hr
- t1/2, serum [14C]-copper histidinate (terminal elimination phase) (single SC 3.0 mg, arithmetic mean ± SD, listed as [^14C]-CuHis): ~75 h
- AUC0-24, serum [14C]-copper histidinate [2]: 185.6 (20.6) ng · hr/mL
- AUC0-24, serum total radioactivity [2]: 1993 (21.4) [n = 6] ng eq CuHis · hr/mL
- AUC0-24, whole blood total radioactivity [2]: 1315 (30.4) [n = 6] ng eq CuHis · hr/mL
- AUC0-24 Ratio, serum [14C]-CuHis versus serum total radioactivity [2]: 0.09317 (19.5) [n = 6]
- AUC0-last, serum [14C]-copper histidinate [2]: 249.3 (10.6) ng · hr/mL
- AUC0-∞, serum [14C]-copper histidinate [2]: 296.0 (15.3) ng · hr/mL
- Cmax, serum [14C]-copper histidinate [2]: 67.14 (35.9) ng/mL
- Cmax, serum total radioactivity [2]: 95.78 (24.3) [n = 6] ng eq CuHis/mL
- Cmax, whole blood total radioactivity [2]: 100.1 (14.8) [n = 6] ng eq CuHis/mL
- AUC0-24 Ratio, serum [14C]-CuHis versus serum total radioactivity (single SC 3.0 mg, geometric mean (geometric CV%), listed as [^14C]-CuHis): 0.09317
- tlag, serum [14C]-copper histidinate [3]: 0.00 (0.00, 0.00) [n = 6] hr
- tlag, serum total radioactivity [3]: 0.00 (0.00, 0.00) [n = 6] hr
- tlag, whole blood total radioactivity [3]: 0.00 (0.00, 0.00) [n = 6] hr
- tmax, serum [14C]-copper histidinate [3]: 0.747 (0.50, 0.76) hr
- tmax, serum total radioactivity [3]: 8.007 (7.99, 16.02) [n = 6] hr
- tmax, whole blood total radioactivity [3]: 168.006 (144.01, 168.03) [n = 6] hr
- tmax, serum [14C]-copper histidinate [4]: 0.75 h
- tmax, serum total radioactivity [4]: ~8 h
- tmax, whole blood total radioactivity [4]: ~168 h
SMILES: N[C@@H](Cc1c[nH]cn1)C(=O)O.N[C@@H](Cc1c[nH]cn1)C(=O)O.[Cu] [[^14C]-Copper Histidinate]
- AUC0-∞, serum total radioactivity (single SC 3.0 mg, Subject 6 excluded, geometric mean (geometric CV%)): 23390 (25.7) [n = 5]^c ng eq CuHis · hr/mL
- AUC0-last, serum total radioactivity [5]: 9390 (13.4) [n = 5]^c ng eq CuHis · hr/mL
- AUC0-last, whole blood total radioactivity [5]: 12130 (15.3) [n = 5]^c ng eq CuHis · hr/mL
